Columns and labels:
[1] = test system: LX-2 cells (human hepatic stellate cells); test: Expression of marker genes for fibrosing in LX-2 cells (quantitative real time PCR); type: cell-based; settings: 5 μM, co-cultured 48 hours, vs DMSO, standardized by GAPDH, FIG. 1
Protocol: LX-2 cells (human hepatic stellate cells) (sigma-aldrich, reference document: Gut 2005, 54 (1), 142-151) were seeded in 12-well tissue culture plates (5×10^4 cells/well) and cultured in Dulbecco's Modified Eagle's Medium (high glucose) (Thermo Fisher Scientific) together with 10% FBS (Fetal Bovine Serum) and 100× penicillin-streptomycin-glutamine (PSG) in a 5% CO2 humidified incubator at 37° C. After 48 hours, the cells were stimulated with dimethyl sulfoxide (DMSO), Compound (II), and Compound (III) (5 μM) (final concentration of DMSO was 0.02%) and co-cultured for another 48 hours. Thereafter, the cells were lysed using a lysis buffer (MACHEREY-NAGEL GmbH & Co. KG).
(§1) Total RNA of LX-2 cells was extracted using NucleoSpin RNA Plus kit (Takara Bio) according to the product protocol. Purified RNA was reverse transcribed using High-Capacity cDNA RT Kits (Thermo Fisher Scientific) according to the product protocol. PCR was performed using TB Green Premix Ex Taq II (Takara Bio) and monitored with a LightCycler96 (Roche Life Science). The number of transcripts was standardized by the number of GAPDHs, which are housekeeping genes.

[2] = test system: primary cultured human renal fibroblasts; test: Expression of marker genes for fibrosing in primary cultured human renal fibroblasts (quantitative real time PCR); type: cell-based; settings: 48 hours
Protocol: (§2) Primary cultured human renal fibroblasts (ATCC), primary cultured human lung fibroblasts (Cosmo Bio), or primary cultured human pancreatic fibroblasts (K.A.C.) were each seeded in 12-well tissue culture plates (5×10^4 cells/well) and cultured in Minimum Essential Medium (lx) (Gibco, Thermo Fisher Scientific) together with 10% FBS (Fetal Bovine Serum) and 100× antifungal antibiotic solution (Sigma-Aldrich) in a 5% CO2 humidified incubator at 37° C. After 48 hours, the cells were stimulated with dimethyl sulfoxide (DMSO), Compound (II), and/or Compound (III) (5 μM) (final concentration of DMSO was 0.02%) and co-cultured for another 48 hours. Cells that are activated by TGFβ1 (FUJIFILM Wako Pure Chemical Corporation), a fibroblast growth and activation factor, were stimulated with TGFβ1 (20 ng/ml) 72 hours after seeding, and after 48 hours, the cells were stimulated with dimethyl sulfoxide (DMSO), Compound (II), and/or Compound (III) (5 μM) (final concentration of DMSO was 0.02%) and co-cultured for another 48 hours. Thereafter, the cells were lysed using a lysis buffer (MACHEREY-NAGEL GmbH & Co. KG).
(§3) Quantitative real-time PCR analysis was performed in the same manner as in Example 5.

[3] = test system: primary cultured human lung fibroblasts; test: Expression of marker genes for fibrosing in primary cultured human lung fibroblasts (quantitative real time PCR); type: cell-based; settings: 48 hours
Protocol: as §2, §3

[4] = test system: primary cultured human pancreatic fibroblasts; test: Expression of marker genes for fibrosing in primary cultured human pancreatic fibroblasts (quantitative real time PCR); type: cell-based; settings: 48 hours
Protocol: as §2, §3

[5] = test system: primary cultured human skin fibroblasts; test: Expression of marker genes for fibrosing in primary cultured human skin fibroblasts (quantitative real time PCR); type: cell-based; settings: 48 hours
Protocol: Primary cultured human skin fibroblasts (Tokyo University School of Medicine) were seeded in 12-well tissue culture plates (7×10^4 cells/well) and cultured in Dulbecco's Modified Eagle's Medium (high glucose) together with 10% FBS (Fetal Bovine Serum) and 100× penicillin-streptomycin-glutamine (PSG) in a 5% CO2 humidified incubator at 37° C. After 48 hours, the cells were stimulated with dimethyl sulfoxide (DMSO), Compound (II), and Compound (III) (5 μM) (final concentration of DMSO was 0.02%) and co-cultured for another 48 hours. Cells activated with TGFβ1 (FUJIFILM Wako Pure Chemical Corporation) were stimulated with TGFβ1 (20 ng/ml) 72 hours after seeding, and after 48 hours, the cells were stimulated with dimethyl sulfoxide (DMSO), Compound (II), and Compound (III) (5 μM) (final concentration of DMSO was 0.02%) and co-cultured for another 48 hours. Thereafter, the cells were lysed using a lysis buffer (MACHEREY-NAGEL GmbH & Co. KG).
as §3

LX-2 cells = test: Immunostaining of αSMA and CollagenI in LX-2 cells; type: cell-based, human; settings: 3 μM, vs DMSO group, FIG. 2
Protocol: LX-2 cells were cultured in the same manner as in Example 1, except that the concentration of Compound (II) was changed to 3 μM.
LX-2 cells were fixed in Mildform (registered trademark) 10N (FUJIFILM Wako Pure Chemical Corporation) at room temperature for 10 minutes and washed with PBS. Membranes were permeabilized using 0.2% Triton X-100. The cells were blocked at room temperature for one hour using 5% skim milk or 0.3% BSA/PBS. After washing with PBS, αSMA (Dako), CollagenI (Abcam), and Hoechst33342 (Sigma-Aldrich) were each added as a first antibody, and the mixture was reacted overnight at 4° C. On the next day, the cells were washed with PBS and then reacted with Invitrogen Alexa Fluor (theromo Fisher) as a second antibody. The cells were observed under a fluorescence microscope (Keyence BZ-X810).

[6] = test system: quiescent hepatic stellate cell-like cells (qHSC-like cells); test: Expression of marker genes for fibrosing in quiescent hepatic stellate cell-like cells derived from human iPS cells (quantitative real time PCR); type: cell-based; settings: 1 or 2 μM, 4 hours of incubation, FIG. 3
Protocol: Quiescent hepatic stellate cell-like cells (qHSC-like cells) were induced by the methods described in Koui et al., Stem Cell Reports 2021, PCT/JP2020/006147, and PCT/JP2016/58411. qHSC-like cells derived from ACTA2-RFP […] iPS cells were seeded in a collagen-coated 12-well plate at a density of 7×10^4 cells/well in Stempro-34 SFM medium (Gibco medium, theromo Fisher) supplemented with Y27632 (10 μM) and 100×PSG. After 24 hours of culture, Compound (II) was dissolved in Stempro-34 SFM medium (100×PSG), and then the solution was added such that the final concentration of Compound (II) was 1 or 2 μM. After 4 hours of incubation, the cells were lysed, and total RNA was extracted using NucleoSpin RNA Plus kit (Takara Bio).
as §1, with “derived from iPS cell-derived qHSC” for “of LX-2 cells”

[7] = test system: mouse model of liver fibrosis; test: Mouse model of liver fibrosis (thioacetamide): liver immunohistochemistry and quantitative real time PCR; type: in vivo, C57BL/6J mice; settings: TAA mouse, 20 mg/kg subcutaneously every 24 hours for 14 days
Protocol: Seven-week-old C57BL/6J mice were purchased from CLEA Japan, Inc. (Tokyo, Japan). All animals were reared in a standard specific pathogen-free room in the animal facility of the Institute for Quantitative Biosciences, University of Tokyo. For a mouse model of liver fibrosis, thioacetamide (TAA) was administered together with drinking water (0.06% v/v), starting 7 weeks before the administration of the compound. After 7 weeks of rearing with TAA-containing water, a vehicle (200 μL of PBS, containing 5% DMSO) or 20 mg/kg (200 μL of PBS, containing 5% DMSO) of Compound (II) was subcutaneously administered every 24 hours for a total period of 14 days. The mice were sacrificed 24 hours after the last injection.
Liver tissue samples were fixed overnight at 4° C. with Zamboni's fixative (FUJIFILM Wako Pure Chemical Corporation) or Mildform (registered trademark) 10N (FUJIFILM Wako Pure Chemical Corporation). For immunofluorescence staining, the liver tissue fixed with Zamboni's fixative was washed with PBS, and the medium was replaced with a 30% (w/v) sucrose solution. Frozen tissue was prepared by embedding the tissue in a Tissue-Tek (registered trademark) O.C.T. compound (Sakura Finetek Japan) and freezing the resultant in liquid nitrogen. Liver cryosections (8 μm) were mounted on slide glasses, rehydrated, and autoclaved in Target Retrieval Solution (lx, Dako) at 90° C. for 20 min for epitope retrieval. The sections were blocked with 0.3% BSA/PBS for 1 hour at room temperature. After washing with PBS, αSMA (Dako), CollagenI (Bio-Rad Laboratories, Inc.), Ki67 (Santa Cruz), and Hoechst33342 (Sigma-Aldrich) were each added as a first antibody, and the mixture was reacted overnight at 4° C. On the next day, the sections were washed with PBS and then reacted with Invitrogen Alexa Fluor (theromo Fisher) as a second antibody. The section specimens were hermetically sealed and observed with a fluorescence microscope (Keyence BZ-X810). The range of positive CollagenI was quantified using Ratiocollagen I=Areacollagen I/Areatotal.
as §1, with “mouse liver tissue” for “LX-2 cells”

[8] = not stimulated with TGFβ1, 5 μM, FIG. 7
[9] = stimulated with TGFβ1 (20 ng/ml), 5 μM, FIG. 8
[10] = not stimulated with TGFβ1, 5 μM, FIG. 9
[11] = stimulated with TGFβ1 (20 ng/ml), 5 μM, FIG. 10
[12] = not stimulated with TGFβ1, 5 μM, FIG. 11
[13] = stimulated with TGFβ1 (20 ng/ml), 5 μM, FIG. 12
[14] = not stimulated with TGFβ1, 5 μM, FIG. 13
[15] = stimulated with TGFβ1 (20 ng/ml), 5 μM, FIG. 14

In the case of NC(COP(=O)(O)OCCCOC(=O)CCc1ccccc1Oc1ccc(-c2cc(-c3ccccc3)cc(-c3ccccc3)c2)cc1)C(=O)O (stereo not drawn) [Compound (III)], the “expression levels of the marker genes for fibrosing (ACTA2, COL1A1, COL3A1)” value (from here on “expression levels … (ACTA2, COL1A1, COL3A1)”) [1] is reported as “decreased”, the “expression levels … (ACTA2, COL1A1, COL3A1)” value [2, 8] is reported as “decreased” and the “expression levels … (ACTA2, COL1A1, COL3A1)” value [2, 9] is reported as “decreased”. For the same compound, the “expression levels … (ACTA2, COL1A1, COL3A1)” value [3, 10] was “decreased”, the “expression levels … (ACTA2, COL1A1, COL3A1)” value [3, 11] was “decreased” and the “expression levels … (ACTA2, COL1A1, COL3A1)” value [4, 12] was “decreased”. The “expression levels … (ACTA2, COL1A1, COL3A1)” value [4, 13] was “decreased”, the “expression levels … (ACTA2, COL1A1, COL3A1)” value [5, 14] was “decreased” and the “expression levels … (ACTA2, COL1A1, COL3A1)” value [5, 15] was “decreased”.

For CC(C)(C)c1cc(-c2ccc(Oc3ccccc3CCC(=O)OCCCOP(=O)(O)OCC(N)C(=O)O)cc2)cc(C(C)(C)C)c1 (stereo not drawn) [Compound (II)], the “expression levels … (ACTA2, COL1A1, COL3A1)” value [1] was “decreased”, the “expression of αSMA and CollagenI (immunostaining)” value (LX-2 cells) was “suppressed” and the “expression levels … (ACTA2, COL1A1, COL3A1)” value [6] was “decreased”. For the same compound, the “positive range of CollagenI in liver tissue sections (Area collagen I/Area total)” value ([7]; vs vehicle, FIG. 4) was “small”, the “Ki67 staining of liver tissue sections (cell proliferation capability)” value ([7]; vs vehicle, FIG. 5) was “larger area stained in red” and the “expression of αSMA and CollagenI in liver tissue sections (immunostaining)” value ([7]; vs vehicle, FIG. 5) was “suppressed”. For the same compound, the “expression levels of the marker genes for fibrosing (COL1A1, COL3A1) in liver tissue” value ([7]; FIG. 6) was “decreased”, the “expression levels … (ACTA2, COL1A1, COL3A1)” value [2, 8] was “decreased” and the “expression levels … (ACTA2, COL1A1, COL3A1)” value [2, 9] was “decreased”. For the same compound, the “expression levels … (ACTA2, COL1A1, COL3A1)” value [3, 10] was “decreased”, the “expression levels … (ACTA2, COL1A1, COL3A1)” value [3, 11] was “decreased” and the “expression levels … (ACTA2, COL1A1, COL3A1)” value [4, 12] was “decreased”. The “expression levels … (ACTA2, COL1A1, COL3A1)” value [4, 13] was “decreased”, the “expression levels … (ACTA2, COL1A1, COL3A1)” value [5, 14] was “decreased” and the “expression levels … (ACTA2, COL1A1, COL3A1)” value [5, 15] was “decreased”.

Source: patent US20250109154A1, “LYSOPHOSPHATIDYLSERINE ANALOGUE, AND LYSOPHOSPHATIDYLSERINE ANALOGUE-CONTAINING PHAMACEUTICAL COMPOSITION FOR TREATING OR PREVENTING FIBROSIS” (THE UNIVERSITY OF TOKYO, priority 2022, published 2025)
